For test [1], the target named is T1, PCSK9 (Homo sapiens (Human), UniProt Q8NBP7). In words: PCSK9 Alexa FRET Standard assay (displacement of AlexaFluor647 tagged cyclic peptide Reagent A). It is filed as binding. The following applies: PCSK9 Alexa FRET Standard assay, 0.5 nM PCSK9, 20 nM AF cyclic peptide Reagent A; read-out: IC50. An outline of the steps: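 TR-FRET displacement: 0.5 nM biotinylated PCSK9 with 1.25 nM Strep-Eu and 20 nM AlexaFluor-tagged cyclic peptide (final) in 50 mM HEPES pH 7.4, 0.15 M NaCl, 5 mM CaCl2, 0.01% BSA, 0.01% P20, ≥2 h at room temperature. IC50 from sigmoidal fit, converted to Ki via peptide KD; falling Eu counts flagged false positives.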

Test [2] addresses T1, PCSK9. In words: PCSK9 Alexa FRET Plus assay (displacement of AlexaFluor647 tagged cyclic peptide Reagent B). The following applies: 0.5 nM PCSK9, 960 nM AF cyclic peptide Reagent B. The class given is binding. The protocol: A solution containing 1 nM biotinylated PCSK9+2.5 nM Lance Streptavidin Europium (Strep-Eu) was made in 50 mM HEPES pH 7.4, 0.15 M NaCl, 5 mM CaCl2), 0.01% BSA, and 0.01% Surfactant P20. A separate solution containing 1920 nM of the AlexaFluor tagged cyclic peptide was made in the same buffer system. An Echo was used to transfer 0.075 ul of compound plus 0.675 ul of DMSO to each well of an assay plate followed by the addition of 15 ul of PCSK9+Stept-Eu and 15 ul of AF peptide. The final assay volume was 30.750 ul containing 0.5 nM PCSK9, 1.25 nM Strep-Eu, and 960 nM AF cyclic peptide. The reaction was incubated at room temperature for at least two hours prior to fluorescence measurements using an Envision Multilabel Reader. IC50 values were determined by fitting data to a sigmoidal dose-response curve using nonlinear regression. Ki was then calculated from the IC50 and the KD of AF cyclic peptide. Counts (B-counts) of the europium-labeled PCSK9 were followed to observe if compounds were adversely affecting PCSK9. A fall off of the B-counts likely indicated a false positive of inhibition. Data from this procedure was reported as “P=‘numerical value’ (nanomolar)”

[3] abbreviates: Alexa FRET Plus, read-out: IC50.

Broadly, the pIC50 is the negative decadic logarithm of the IC50, by convention in mol/L.

The structures appear in SMILES notation. pIC50: −log10 of the molar value. Starred links: 1 amine or outer side, 2 acyl side, 3 side chain; linkers in the order of their positions; H or OH if unused. Positions of bridges follow the written chain, without caps; N, C: chain ends. Non-standard residues stand in square brackets, D forms with d. Residues, ends and D or L forms follow the SMILES beside them. Groups on a side chain read outwards from the residue. *: point of attachment. X1 = O=C1CC[C@@H](C(=O)[*:1])N1CCCSCc1cccc(C[*:2])c1; Ala(imidazol-2-yl) = N[C@@H](Cc1ncc[nH]1)C(=O)O; Trp(5-F) = N[C@@H](Cc1c[nH]c2ccc(F)cc12)C(=O)O; Phe(4-CH2NH2) = NCc1ccc(C[C@H](N)C(=O)O)cc1; X45 = O=C(CCC(=O)[*:1])NCc1ccc(CCN[*:2])cc1; X3 = O=C(CCSCc1cc(F)cc(CSCCN[*:1])c1)[*:2]; Pro(cis-4-F) = O=C(O)[C@@H]1C[C@H](F)CN1; γGlu = O=C(O)[C@H](CCC(=O)[*:2])N[*:1]; mXylylene = c1cc(C[*:1])cc(C[*:2])c1; AEF = NCCOc1ccc(C[C@H](N)C(=O)O)cc1; Lys(Me2) = CN(C)CCCC[C@H](N)C(=O)O; Palmitoyl = CCCCCCCCCCCCCCCC(=O)*; aThr = C[C@H](O)[C@H](N)C(=O)O; Suc = O=C(CCC(=O)[*:2])[*:1]; αMeP = C[C@@]1(C(=O)O)CCCN1; Aun = NCCCCCCCCCCC(=O)O; AEEA = NCCOCCOCC(=O)O; Piv = CC(C)(C)C(=O)*; Mpa = O=C(O)CCS

T1 sequence (Q8NBP7 153-692): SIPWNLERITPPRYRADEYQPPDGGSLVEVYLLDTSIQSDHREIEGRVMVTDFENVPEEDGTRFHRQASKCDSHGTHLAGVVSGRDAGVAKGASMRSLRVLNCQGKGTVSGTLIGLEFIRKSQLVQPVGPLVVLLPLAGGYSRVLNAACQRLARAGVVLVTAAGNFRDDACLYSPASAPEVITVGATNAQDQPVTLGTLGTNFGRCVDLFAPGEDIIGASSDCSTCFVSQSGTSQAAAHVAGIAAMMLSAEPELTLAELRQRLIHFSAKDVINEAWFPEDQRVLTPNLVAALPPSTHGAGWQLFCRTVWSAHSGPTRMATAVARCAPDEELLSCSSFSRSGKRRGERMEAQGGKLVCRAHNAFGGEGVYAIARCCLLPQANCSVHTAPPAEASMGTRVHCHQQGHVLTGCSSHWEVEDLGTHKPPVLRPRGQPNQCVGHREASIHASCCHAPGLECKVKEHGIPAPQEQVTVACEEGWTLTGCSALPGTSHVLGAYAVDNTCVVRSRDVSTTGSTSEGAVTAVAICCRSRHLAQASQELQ

`COc1ccc(C[C@@H]2NC(=O)[C@H]([C@@H](C)O)NC(=O)[C@@H]3C[C@H](F)CN3C(=O)[C@H](Cc3c[nH]c4ccc(F)cc34)NC(=O)[C@H](Cc3c[nH]c4ccc(F)cc34)NC(=O)[C@@H](C)NC(=O)[C@H](CCCCN)NC(=O)CCC(=O)NCc3ccc(cc3)C[C@@H](C(N)=O)NC(=O)[C@]3(C)CCCN3C2=O)cc1` [Compound 097] (K[dA][Trp(5-F)][Trp(5-F)][Pro(cis-4-F)]TY(Me)[αMeP][Phe(4-CH2NH2)]-NH2; linker N-9 via Suc): the values for the pIC50 at PCSK9 [1] and on PCSK9 [2] (setting [3]) were 7.00 to 9.96 and 5.30 to 6.30, respectively.

Consider `COc1ccc(C[C@@H]2NC(=O)[C@H]([C@@H](C)O)NC(=O)[C@@H]3C[C@H](F)CN3C(=O)[C@H](Cc3c[nH]c4ccc(F)cc34)NC(=O)[C@H](Cc3c[nH]c4ccc(F)cc34)NC(=O)[C@@H](C)NC(=O)[C@H](CCCCN)NC(=O)[C@@H](NC(=O)C(C)(C)C)CC(=O)NCCOc3ccc(cc3)C[C@@H](C(N)=O)NC(=O)[C@]3(C)CCCN3C2=O)cc1` [Compound 119] (Piv-DK[dA][Trp(5-F)][Trp(5-F)][Pro(cis-4-F)]TY(Me)[αMeP][AEF]-NH2; lactam 1-10), for which the pIC50 is 4.30 to 4.68 on PCSK9 [1] and 5.30 to 6.30 at PCSK9 [2] (setting [3]).

On to `COc1ccc(C[C@@H]2NC(=O)[C@H](Cc3ncc[nH]3)NC(=O)[C@H](CC(=O)O)NC(=O)[C@H](Cc3c[nH]c4ccc(F)cc34)NC(=O)[C@H](Cc3c[nH]c4ccc(F)cc34)NC(=O)[C@@H](C)NC(=O)[C@H](CCCCN(C)C)NC(=O)CCSCc3cc(F)cc(c3)CSCCNC(=O)[C@]3(C)CCCN3C2=O)cc1` [Compound 466] (cyclo(D[Ala(imidazol-2-yl)]Y(Me)[αMeP][X3][Lys(Me2)][dA][Trp(5-F)][Trp(5-F)])), for which the negative-log IC50 (pIC50) is 6.00 to 7.00 on PCSK9 [1] and 5.30 to 6.30 on PCSK9 [2] (setting [3]).

On to `CCCCCCCCCCCCCCCC(=O)N[C@@H](CCC(=O)NCCOCCOCCC(=O)NCCOCCOCC(=O)NCCCC[C@H](NC(=O)COCCOCCOCCOCCOCCOCCOCCOCCOCCOCCOCCOCCNC(=O)[C@@H]1CSCc2cccc(c2)CSCCC(=O)N[C@@H](CCCCN)C(=O)N[C@H](C)C(=O)N[C@@H](Cc2c[nH]c3ccc(F)cc23)C(=O)N[C@@H](Cc2c[nH]c3ccc(F)cc23)C(=O)N[C@@H](CC(=O)O)C(=O)N[C@@H](Cc2cnc[nH]2)C(=O)N[C@@H](Cc2ccc(O)cc2)C(=O)N2CCC[C@@]2(C)C(=O)N1)C(N)=O)C(=O)O` [Compound 474], for which the pIC50 at PCSK9 [1] was 4.92 to 6.00; at PCSK9 [2] (setting [3]), 5.30 to 6.30.

As to `C[C@@]12CCCN1C(=O)[C@H](Cc1ccc(O)cc1)NC(=O)[C@H](Cc1c[nH]cn1)NC(=O)[C@H](CC(=O)O)NC(=O)[C@H](Cc1c[nH]c3ccc(F)cc13)NC(=O)[C@H](Cc1c[nH]c3ccc(F)cc13)NC(=O)CNC(=O)[C@@H]1CCC(=O)N1CCCSCc1cccc(c1)CSC[C@@H](C(N)=O)NC2=O` [Compound 482] (G[Trp(5-F)][Trp(5-F)]DHY[αMeP]C-NH2; linker N-8 via X1), the pIC50 at PCSK9 [1] is 7.00 to 9.96; on PCSK9 [2] (setting [3]), 6.30 to 7.00.

Turning to `COc1ccc(C[C@@H]2NC(=O)[C@@H]3CCCC/C=C\CC[C@@]4(CCCN4C2=O)C(=O)NCCSCc2cccc(c2)CSCCC(=O)N[C@@H](C)C(=O)N[C@H](C)C(=O)N[C@H]2Cc4cccc(c4)CNC(=O)CC[C@@H](C(=O)N3)N3C(=O)[C@@H](NC2=O)C3c2c[nH]c3ccc(F)cc23)cc1` (stereo partly shown) [Compound 524], the negative-log IC50 (pIC50) was 6.00 to 7.00 at PCSK9 [1] and 5.30 to 6.30 at PCSK9 [2] (setting [3]).

Consider `COc1ccc(C[C@@H]2NC(=O)[C@H]([C@H](C)O)NC(=O)[C@@H]3C[C@H](F)CN3C(=O)[C@H](Cc3c[nH]c4ccc(F)cc34)NC(=O)[C@H](Cc3c[nH]c4ccc(F)cc34)NC(=O)[C@@H](C)NC(=O)[C@H](CCCCN)NC(=O)CCC(=O)NCc3ccc(cc3)CCNC(=O)[C@]3(C)CCCN3C2=O)cc1` [Compound 111] (K[dA][Trp(5-F)][Trp(5-F)][Pro(cis-4-F)][aThr]Y(Me)[αMeP]; linker N-C via X45), for which the pIC50 is 7.00 to 9.96 at PCSK9 [1] and 7.00 to 10.00 at PCSK9 [2] (IC50, Alexa FRET Plus).

For the molecule `CCCCCCCCCCCCCCCC(=O)N[C@@H](CCC(=O)NCCOCCOCC(=O)NCCOCCOCC(=O)NCCCC[C@H](NC(=O)CCCCCCCCCCNC(=O)[C@@H]1CSCc2cccc(c2)CSCCC(=O)N[C@@H](CCCCN)C(=O)N[C@H](C)C(=O)N[C@@H](Cc2c[nH]c3ccc(F)cc23)C(=O)N[C@@H](Cc2c[nH]c3ccc(F)cc23)C(=O)N[C@@H](CC(=O)O)C(=O)N[C@@H](Cc2cnc[nH]2)C(=O)N[C@@H](Cc2ccc(O)cc2)C(=O)N2CCC[C@@]2(C)C(=O)N1)C(N)=O)C(=O)O` [Compound 479] ([Mpa]K[dA][Trp(5-F)][Trp(5-F)]DHY[αMeP]C[Aun]K([AEEA-AEEA-γGlu-Palmitoyl])-NH2; linker 1-10 via mXylylene), the negative-log IC50 (pIC50) at PCSK9 [1] was 7.00 to 9.96; on PCSK9 [2] (setting [3]) it was 5.30 to 6.30.

(Values after patent US11530244B2, “Cyclic polypeptides for PCSK9 inhibition” (priority 2018, dated 2022).)
